Reference: PubChem BioAssay (NCI)
“And” between values parts separate entries of the source, which are not always exact repeats. Identical values can stand only once.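 Five compound concentrations were applied to cells in 96-well plates for 48 hours; endpoints were derived by simple linear interpolation of the resulting dose-response curve. GI50 is the concentration that inhibits growth by half. TGI denotes the concentration required for complete inhibition of growth.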

Experiments:
Experiment in all cases: NCI-60 cell line screen, 48 h
U251 CNS = system: U251 CNS
SR leukemia = system: SR leukemia
UACC-257 melanoma = system: UACC-257 melanoma
KM20L2 colon = system: KM20L2 colon
EKVX NSCLC = system: EKVX NSCLC
SK-MEL-28 melanoma = system: SK-MEL-28 melanoma
DLD-1 colon = system: DLD-1 colon
HCT-116 colon = system: HCT-116 colon
NCI-H522 lung = system: NCI-H522 lung
HL-60(TB) leukemia = system: HL-60(TB) leukemia

Compound	GI50 (U251 CNS)	TGI (U251 CNS)	TGI (SR leukemia)	GI50 (UACC-257 melanoma)	TGI (UACC-257 melanoma)	TGI (KM20L2 colon) [µM]	GI50 (EKVX NSCLC)	TGI (EKVX NSCLC)	GI50 (SK-MEL-28 melanoma)	TGI (SK-MEL-28 melanoma)	GI50 (DLD-1 colon) [µM]	TGI (DLD-1 colon) [µM]	GI50 (HCT-116 colon)	TGI (HCT-116 colon)	GI50 (NCI-H522 lung)	TGI (NCI-H522 lung)	GI50 (HL-60(TB) leukemia)	TGI (HL-60(TB) leukemia)	GI50 (SR leukemia)	GI50 (KM20L2 colon) [µM]
CN(N=O)C(=O)N[C@@H](C=O)[C@@H](O)[C@H](O)[C@H](O)CO	> 750 µM	626 µM and > 750 µM	> 750 µM	> 750 µM	> 750 µM	> 750	> 750 µM	> 750 µM	> 750 µM	> 750 µM	> 750	> 750	> 750 µM	653 µM and > 750 µM	> 750 µM	646 µM and > 750 µM	> 750 µM	> 750 µM	–	–
O=c1cccccc1NCCCCCCNc1cccccc1=O	–	> 100 µM	–	–	> 100 µM	> 100	–	> 100 µM	–	> 100 µM	–	> 100	–	> 100 µM	–	> 100 µM	–	> 100 µM	–	–
O=C(c1ccccc1)c1ccc(OCCOc2ccc(Nc3ccccc3)cc2)cc1	–	57.1 µM	> 100 µM	–	> 100 µM	> 100	–	> 100 µM	–	> 100 µM	–	> 100	–	> 100 µM	–	53.3 µM	–	–	–	–
CC/C(=C(/CC)c1ccc([O-])cc1)c1ccc([O-])cc1.CC/C(=C(\CC)c1ccc([O-])cc1)c1ccc([O-])cc1.O=C([CH-]C(=O)c1ccccc1)c1ccccc1.O=C([CH-]C(=O)c1ccccc1)c1ccccc1.O=C([CH-]C(=O)c1ccccc1)c1ccccc1.O=C([CH-]C(=O)c1ccccc1)c1ccccc1.[Ti+4].[Ti+4]	24.9 µM	82 µM	> 100 µM	28 µM	> 100 µM	77.8	45.5 µM	> 100 µM	39.5 µM	> 100 µM	19.8	53.1	28.8 µM	> 100 µM	–	–	> 100 µM	> 100 µM	58.5 µM	29.5
CCOC(=O)C1=C(O)CSC1=Nc1ccccc1	–	–	> 100 µM	–	> 100 µM	> 100	–	–	–	> 100 µM	–	> 100	–	> 100 µM	–	> 100 µM	–	> 100 µM	–	–
CC(=O)c1cccc(NC(=O)C(=O)C(C2OC(=O)c3ccccc32)[N+](=O)[O-])c1 (configuration not stated)	–	> 100 µM	> 100 µM	–	> 100 µM	> 100	–	> 100 µM	–	> 100 µM	–	> 100	–	> 100 µM	–	–	–	> 100 µM	–	–
COc1ccc(C(=O)C(C(=O)C(=O)Nc2ccc(Cl)c(Cl)c2)c2ccc(OC)cc2)cc1 (configuration not stated)	–	> 100 µM	–	–	> 100 µM	> 100	–	> 100 µM	–	> 100 µM	–	> 100	–	> 100 µM	–	–	–	> 100 µM	–	–
CN[C@@H](C)[C@@H](N)c1ccccc1	–	> 100 µM	–	–	> 100 µM	–	–	> 100 µM	–	> 100 µM	–	> 100	–	> 100 µM	–	> 100 µM	–	–	–	–
NNC(=S)N/N=C(/C(=O)Nc1cc(Cl)ccc1Cl)C1C(=O)Nc2ccccc2S1=O (configuration not stated)	–	> 100 µM	> 100 µM	–	> 100 µM	> 100	–	> 100 µM	–	> 100 µM	–	> 100	–	> 100 µM	–	> 100 µM	–	> 100 µM	–	–
O=P(NC12CC3CC(CC(C3)C1)C2)(N1CC1)N1CC1	–	> 100 µM	> 91.4 µM	–	> 100 µM	> 100	–	> 100 µM	–	> 100 µM	–	> 100	–	> 100 µM	–	> 100 µM	–	98.9 µM	–	–
O=C1N(c2ccccc2)C(=O)C2(SC=NN2Cc2ccccc2)N1c1ccccc1 (configuration not stated)	–	> 100 µM	> 100 µM	–	> 100 µM	> 100	–	> 100 µM	–	> 100 µM	–	> 100	–	> 100 µM	–	> 100 µM	–	> 100 µM	–	–
C1C[S][Ge]2([S]CCO1)[S]CCOCC[S]2	–	–	> 100 µM	–	–	–	–	–	> 100 µM	> 100 µM	> 100	> 100	> 100 µM	> 100 µM	> 100 µM	> 100 µM	> 100 µM	> 100 µM	> 100 µM	–
Cc1c(C(=O)C/C(=N/NC(=O)C[n+]2ccccc2)C(=O)Nc2ccccc2)[n+](=O)c2ccccc2n1O	–	> 100 µM	> 100 µM	–	> 100 µM	> 100	–	> 100 µM	–	> 100 µM	–	> 100	–	> 100 µM	–	> 100 µM	–	> 100 µM	–	–
CC(=O)O[C@]1(C)OC(=O)[C@@H](C)N1[N+](=O)[O-]	–	> 100 µM	> 100 µM	–	> 100 µM	> 100	–	> 100 µM	–	> 100 µM	–	> 100	–	> 100 µM	–	> 100 µM	–	> 100 µM	–	–
COc1c(NC(C)=O)cc(C)cc1NC(C)=O	–	> 100 µM	> 100 µM	–	> 100 µM	–	–	> 100 µM	–	> 100 µM	–	> 100	–	> 100 µM	–	> 100 µM	–	> 100 µM	–	–
O=C([O][Hg][CH2]C1COC([CH2][Hg][O]C(=O)c2ccccc2)CO1)c1ccccc1 (configuration not stated)	4.46 µM and 13.5 µM	10.8 µM and 27 µM	> 22.6 µM	14.8 µM and 1.98 µM	28.1 µM and 3.98 µM	32.7	20.7 µM and 19.5 µM	35.8 µM and 34.9 µM	15.9 µM and 1.75 µM	29.5 µM and 3.19 µM	2.59	7.25	4.24 µM and 1.39 µM	14.7 µM and 2.68 µM	1.47 µM and 1.14 µM	3.78 µM and 4.64 µM	1.68 µM and 1.82 µM	4.54 µM and 21.6 µM	2.83 µM and 1.65 µM	17.9
C[C@]12CCc3nonc3C1CC[C@@H]1C2CC[C@]2(C)NC(=O)CCC12 (some centres not stated)	–	> 100 µM	–	–	> 100 µM	> 100	–	> 100 µM	–	> 100 µM	–	–	–	> 100 µM	–	> 100 µM	–	> 100 µM	–	–
CC1(C)CCc2cc3c(cc2O1)OCC1c2cc4c(cc2OC31)OCO4 (configuration not stated)	–	> 100 µM	> 100 µM	–	> 100 µM	> 100	–	> 100 µM	–	–	–	> 100	–	> 100 µM	–	> 100 µM	–	> 100 µM	–	–
CC(=O)c1cc2c(cc1Nc1c3ccccc3nc3occ(Cl)c13)OCO2	0.35 µM	> 100 µM	1.06 µM	> 100 µM	> 100 µM	–	0.181 µM	> 100 µM	0.541 µM	> 100 µM	–	–	0.246 µM	1.07 µM	0.0402 µM	1.46 µM	0.0647 µM	0.57 µM	0.12 µM	–
COC(=O)[C@]12CC[C@@H](C)[C@H](C)[C@@H]1C1=CC[C@@H]3[C@@]4(C)C(C=O)=C[C@@](C)(COC(=O)c5ccco5)[C@@H]4C(=O)C[C@@]3(C)[C@]1(C)CC2	4.83 µM	> 100 µM	39.4 µM	0.148 µM	0.666 µM	–	4.64 µM	> 100 µM	0.0524 µM	> 100 µM	–	–	3.68 µM	> 100 µM	7.63 µM	> 100 µM	3.58 µM	15.4 µM	3.12 µM	–
Cn1nnnc1N/N=C/c1ccccc1	–	> 10 µM	> 10 µM	–	> 10 µM	–	–	> 10 µM	–	> 10 µM	–	–	–	> 10 µM	–	> 10 µM	–	> 10 µM	–	–
COc1ccc2c(c1)[n+]([O-])c(-c1ccccc1)c(N)[n+]2[O-]	–	> 100 µM	–	–	71.6 µM	> 100	–	> 100 µM	–	69.3 µM	–	> 100	–	–	–	34.4 µM	–	> 100 µM	–	–
O=C(c1cc2ccccc2o1)N(Cc1ccccc1)c1ccccc1	–	–	68.4 µM	–	41.4 µM	35.9	–	78.2 µM	–	87 µM	–	56.6	–	31.9 µM	–	33.9 µM	–	40.6 µM	–	–
C[C@@H]1CC[C@@H]2[C@@H]1[C@H](OC(=O)/C=C/c1ccccc1)[C@]1(C3CCCCC3)C[C@@H](NC(=O)CO)[C@@]2(C)O1	18.6 µM	34 µM	41.2 µM	25.2 µM	42.1 µM	–	13.5 µM	27.5 µM	16.9 µM	33 µM	–	–	19.5 µM	34.2 µM	17.1 µM	33.6 µM	21.5 µM	40.4 µM	19.8 µM	–
CN(C)CCOc1ccc(/C(=C(/CCCl)c2ccccc2)c2ccccc2)cc1	0.815 µM	–	3.13 µM and 10 µM	0.943 µM	–	–	1.81 µM	21 µM and 29.4 µM	0.912 µM	–	–	–	1.59 µM	5.33 µM and 30.4 µM	0.9 µM	–	1.06 µM	2.11 µM and 15 µM	1.18 µM	–
CC(C)(C)CC(C)(C)c1cc2c(O)c(c1)Cc1cc(C(C)(C)CC(C)(C)C)cc(c1O)Cc1cc(C(C)(C)CC(C)(C)C)cc(c1O)Cc1cc(C(C)(C)CC(C)(C)C)cc(c1O)Cc1cc(C(C)(C)CC(C)(C)C)cc(c1O)Cc1cc(C(C)(C)CC(C)(C)C)cc(c1O)C2	–	> 100 µM	–	–	> 100 µM	> 100	–	> 100 µM	–	> 100 µM	–	> 100	–	> 100 µM	–	> 100 µM	–	> 100 µM	–	–
COC(=O)C1=C(C(=O)OC)C23CC1C1C(C(=O)OC)=C(C(=O)OC)C12C1C=CC3C2C(=O)OC(=O)C21 (configuration not stated)	–	> 100 µM	–	–	> 100 µM	> 100	–	> 100 µM	–	> 100 µM	–	> 100	–	> 100 µM	–	63.5 µM	–	> 100 µM	–	–
CN(C)c1ccc(/C=C2\N=C(c3ccc([N+](=O)[O-])cc3)OC2=O)cc1	–	> 100 µM	86.9 µM	–	> 100 µM	–	–	> 100 µM	–	> 100 µM	–	–	–	> 100 µM	–	> 100 µM	–	87.9 µM	–	–
O=C(O)CCC(=O)c1ccc2ccc3cccc4ccc1c2c34	–	> 100 µM	> 100 µM	–	> 100 µM	–	–	> 100 µM	–	> 100 µM	–	–	–	> 100 µM	–	> 100 µM	–	> 100 µM	–	–
O=C1OCCC1C(O)C1c2ccccc2-c2ccccc21 (configuration not stated)	–	> 100 µM	> 100 µM	–	> 100 µM	–	–	> 100 µM	–	> 100 µM	–	> 100	–	> 100 µM	–	> 100 µM	–	> 100 µM	–	–
